Consider one compound from paper PMC4162403 (Angewandte Chemie (International ed. in English), 2010).

The term inhibition denotes the percentage by which the read-out fell short of the control.

This test concerns the target TNF-α (Homo sapiens, UniProt P01375). Description: inhibition of TNFR-1 binding to TNF-α, side-by-side experiment. As to conditions: read-out: % inhibition at 10 μM.

Chain of TNF-α (P01375 77-233): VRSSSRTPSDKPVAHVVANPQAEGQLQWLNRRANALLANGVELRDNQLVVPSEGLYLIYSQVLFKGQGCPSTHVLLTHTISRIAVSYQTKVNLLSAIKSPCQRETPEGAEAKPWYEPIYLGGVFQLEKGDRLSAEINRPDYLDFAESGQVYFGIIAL

For `Cc1cc2occ(CN(C)CCN(C)Cc3cn(-c4cccc(C(F)(F)F)c4)c4ccccc34)c(=O)c2cc1C` [SPD304], the inhibition at 10 µM was determined as 34%.
